Experimental data as given in US12599625B2, “Treatment of ARDS and other conditions caused by acutely elevated cytokine levels and post ARDS chronic cytokine production using inhaled anesthetics” (priority 2021, dated 2026).

System: substance P
Test: Clinical observation: relief of symptoms caused by acute and chronic excessive substance P
Format: in vivo, human

## [N-]=[N+]=O [nitrous oxide]
About 20 minutes of nitrous oxide every about 4-6 hours
  relief of symptoms of COVID-19 and asthma: may be relieved
Nitrous oxide every about 4-6 hours
  relief of symptoms of COPD and asthma: ray be relived
